Reference: US10842794B2, “Use of Sigma-1 receptor agonist compounds” (MTA TÁMOGATOTT KUTATÓCSOPORTOK IRODÁJA, priority 2014, dated 2020)

Legend:
[1] = system: NRK49F cells; assay: Cell viability MTT assay in myofibroblasts; type: cell-based, rat; conditions: 24-hours treatment, commonly used doses 1-10 μM
[2] = system: NRK49F rat kidney interstitial fibroblast cell lines; assay: PDGFB-induced myofibroblast proliferation (MTT); type: cell-based; conditions: for PDGF-induced myofibroblast proliferation: 10 ng/mL PDGFB, 24 hours, different concentrations of agonist
[3] = system: Streptozotocin induced type 1 diabetic rats; assay: Diabetic rat kidney: Masson's trichrome staining, tubulointerstitial fibrosis; type: in vivo; conditions: rats treated with 20 mg fluvoxamine + NE-100 1 mg/bwkg/day
[4] = system: Streptozotocin induced type 1 diabetic rats; assay: Diabetic rat kidney: PAS staining, mesangial matrix expansion; type: in vivo; conditions: fluvoxamine 20 or 2 mg/bwkg/day + NE-100 1 mg/bwkg/day
[5] = system: Streptozotocin induced type 1 diabetic rats; assay: Diabetic rat kidney: fibronectin staining; type: in vivo; conditions: fluvoxamine 20 mg/bwkg/day + NE-100 1 mg/bwkg/day
[6] = system: Streptozotocin induced type 1 diabetic rats; assay: Diabetic rat kidney: αSMA protein level, western blot; type: in vivo; conditions: diabetic rats, fluvoxamine + NE-100 1 mg/bwkg/day
[7] = system: mice with unilateral ureter obstruction (UUO); assay: Mice model of unilateral ureteral obstruction (UUO): Masson's trichrome, tubulointerstitial fibrosis; type: in vivo; conditions: fluvoxamine 20 mg/bwkg/day + NE-100 1 mg/bwkg/day for one week
[8] = system: rat model of bleomycin-induced lung fibrosis; assay: Rat model of bleomycin induced pulmonary fibrosis: Masson trichrome staining of lung; type: in vivo; conditions: fluvoxamine 20 mg/bwkg/day + NE-100 1 mg/bwkg/day for three weeks
Method: Masson trichrome staining of tissue sections was performed Bars represent Mean±SEM, n=6/group). Specifically:
(§1) For the induction of pulmonary fibrosis male Wistar rats were anesthetized. Bleomycin (5 mg/bwkg in a 300 μl solution of isotonic saline) or 300 μl isotonic saline was administered into the trachea using a 30G needle.
(§2) Animals were randomly divided into 4 groups of 6 rats each as follows (i)—control group was sham operated, received isotonic saline per os daily for 3 weeks, (ii) vehicle treated group: received isotonic saline per os daily for 3 weeks after the induction of lung fibrosis, (iii) fluvoxamine treated group: received fluvoxamine (20 mg/bwkg/day per os for 3 weeks after the induction of lung fibrosis), (iv) fluvoxamine+NE100 treated group: received fluvoxamine (20 mg/bwkg/day; per os) and 1 mg/bwkg/day NE100 (i.p. for 3 weeks after the induction of lung fibrosis. […]
The stained sections were viewed and photographed with Pannoramic 250 Flash and Pannoramic Viewer 1.15.2 (3D HISTECH Ltd. Budapest, Hungary) Adobe Photoshop 13.0 and Scion Image for Windows software were used for the analysis. […] Finally these ratios were statistically analyzed in all of the treatment groups.

[9] = system: rat model of bleomycin-induced lung fibrosis; assay: Rat model of bleomycin induced pulmonary fibrosis: αSMA protein in lung, western blot; type: in vivo; conditions: fluvoxamine 20 mg/bwkg/day + NE-100 1 mg/bwkg/day for three weeks
Method: (Bars represent Mean±SEM, n=6/group).
as §1, §2
Tissue samples were lysed in buffer containing leupeptin, aprotinin, Triton X-100, Tris-HCl, Ethylene glycol-bis (2-aminoethylether),N,N,N′,N′-tetraacetic-acid, NaF, Phenylmethylsulphonylfluoride and Na-orthovanadate (each substance were purchased from Sigma-Aldrich Co., St. Louis, Mo., USA) and centrifuged to pellet nuclei and large cellular fragments. Protein concentration of the supernatants was determined by Bradford assay (Bio-Rad Laboratories, Hercules, Calif., USA). […] Bands were analyzed with Quantity One software version 4.6.9. […]

[10] = system: NRK49F myofibroblasts; conditions: all applied concentrations, even the smallest 1 μM
Method: In 6-well plates of NRK49F myofibroblasts (6×10^6 cells/well) TGF-β (1 nM) induced production of fibrillar components of the extracellular matrix was measured by Sirius Red staining. To investigate the effect of S1R agonist compounds a group of cells was treated for 48 hours with the various S1R agonists. Solvent treated cells served as controls. (Bars represent mean±SEM)
To investigate the deposition of fibrillar collagen Sirius Red staining was performed. 48 hours after the treatment with TGF-β and said compounds the NRK-49F cells were incubated for 10 minutes with Kahle fixative solution. 0.1% Sirius Red (Direct Red 80, Sigma-Aldrich) in 1.2% picric acid was added for each well and plates were incubated for 30 minutes at RT. The unconnected dye molecules were washed with distilled water. The bound Sirius Red dye was eluated with 0.1 M NaOH solution, absorbance was recorded at 540 nm in a Hidex Chameleon Microplate Reader (Triathler, Plate Chameleion, 300SL Lablogic Systems, Inc., Brandon, Fla., USA) used MikroWin program. Vehicle treated cells served as controls.

[11] = target: S2R (Homo sapiens, UniProt Q5BJF2); conditions: read-out: Ki for σ2 receptors; cited from earlier work
[12] = target: PCP receptors; conditions: cited from earlier work
[13] = system: post-AMI left ventricular remodeling / infarct expansion; conditions: cited from earlier work
[14] = system: Japanese patients with IPF; conditions: 1,800 mg/day, 107 Japanese patients with IPF; cited from earlier work

Chain of S2R (Q5BJF2 whole entry, species assumed): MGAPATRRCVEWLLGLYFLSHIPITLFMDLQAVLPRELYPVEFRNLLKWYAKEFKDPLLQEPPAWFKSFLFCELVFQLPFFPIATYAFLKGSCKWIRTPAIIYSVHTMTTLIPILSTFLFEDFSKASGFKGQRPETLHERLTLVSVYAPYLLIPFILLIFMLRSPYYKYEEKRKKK

SMILES: CCCN(CCC)CCc1ccc(OC)c(OCCc2ccccc2)c1.Cl [NE-100, 4-Methoxy-3-(2-phenylethoxy)-N,N-dipropylbenzeneethanamine hydrochloride]
- cytotoxicity / cell viability in myofibroblasts [1]: not cytotoxic
- effect of NE-100 co-incubation on anti-proliferative effect of fluvoxamine ([2]; NE-100 3 μM with fluvoxamine 10 μM, PDGF-induced): suspended the effect of fluvoxamine
- effect of NE-100 co-administration on protective effect of fluvoxamine (tubulointerstitial fibrosis) [3]: inhibited the protective effect of fluvoxamine
- effect of NE-100 co-administration on renoprotection of fluvoxamine (mesangial matrix expansion) [4]: prohibited the renoprotection of fluvoxamine
- effect of NE-100 on fluvoxamine's effect on fibronectin accumulation [5]: suspended this beneficial effect
- effect of NE-100 co-administration on fluvoxamine's effect on αSMA protein level [6]: suspended
- effect of NE-100 on fluvoxamine's effect on tubulointerstitial fibrosis after UUO [7]: suspended the beneficial effect of fluvoxamine
- effect of NE-100 on fluvoxamine's effect on lung fibrosis [8]: suspended the effect of fluvoxamine
- effect of NE-100 on fluvoxamine's effect on lung αSMA [9]: suspended the beneficial effect of fluvoxamine

SMILES: COc1ccc(CCN2CCN(CCCc3ccccc3)CC2)cc1OC [SA-4503, 1-[2-(3,4-Dimethoxyphenyl)ethyl]-4-(3-phenylpropyl)piperazine]
- cytotoxicity / cell viability in myofibroblasts [1]: not cytotoxic
- PDGF-induced myofibroblast proliferation [2]: significantly decreased PDGF-induced myofibroblast proliferation
- TGFβ-induced ECM production (Sirius Red) [10]: significantly inhibited TGFβ-induced ECM production

SMILES: O=C(OCCN1CCOCC1)C1(c2ccccc2)CCCCC1 [PRE-084, 2-morpholin-4-ylethyl 1-phenylcyclohexane-1-carboxylate]
- cytotoxicity / cell viability in myofibroblasts [1]: not cytotoxic
- PDGF-induced myofibroblast proliferation [2]: significantly decreased PDGF-induced myofibroblast proliferation
- TGFβ-induced ECM production (Sirius Red) [10]: significantly inhibited TGFβ-induced ECM production
- Ki [11]: 13.1 µM
- IC50 [12]: > 100 µM

SMILES: COc1ccc(/C=C/C(=O)Nc2ccccc2C(=O)O)cc1OC [tranilast, 2-{[(2E)-3-(3,4-dimethoxyphenyl)prop-2-enoyl]amino}benzoic acid]
- left ventricular remodeling ([13]; commencement of treatment delayed to 7 days post-AMI): impeded left ventricular remodeling
- infarct expansion ([13]; intervention from 24h post-AMI): exacerbated infarct expansion

SMILES: Cc1ccc(=O)n(-c2ccccc2)c1 [pirfenidone, 5-Methyl-1-phenylpyridin-2-one]
- primary end point, pirfenidone versus placebo [14]: not significantly different between the two groups
